Laboratory results reported in PubChem BioAssay AID493250 (Broad Institute, 2011).
Active and inactive are the calls of the source.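 Rule for the calls: active = signal decrease with fitted half-maximal dose at or below ten times the highest valid tested dose; inconclusive = poor fit, or flat fit at 30 to 70% inhibition; inactive = the rest.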

target: Zinc finger protein mex-5 (Caenorhabditis elegans) (UniProt Q9XUB2); assay: inhibitors of MEX-5 RNA binding, dose response, biochemical, fluorescence polarization, C. elegans, cherry-picked, round 3 (AID 493250); conditions: purified MEX-5-MBP, FITC-TCR2 RNA fluorescence polarization
Sequence (Q9XUB2 whole entry, looked up): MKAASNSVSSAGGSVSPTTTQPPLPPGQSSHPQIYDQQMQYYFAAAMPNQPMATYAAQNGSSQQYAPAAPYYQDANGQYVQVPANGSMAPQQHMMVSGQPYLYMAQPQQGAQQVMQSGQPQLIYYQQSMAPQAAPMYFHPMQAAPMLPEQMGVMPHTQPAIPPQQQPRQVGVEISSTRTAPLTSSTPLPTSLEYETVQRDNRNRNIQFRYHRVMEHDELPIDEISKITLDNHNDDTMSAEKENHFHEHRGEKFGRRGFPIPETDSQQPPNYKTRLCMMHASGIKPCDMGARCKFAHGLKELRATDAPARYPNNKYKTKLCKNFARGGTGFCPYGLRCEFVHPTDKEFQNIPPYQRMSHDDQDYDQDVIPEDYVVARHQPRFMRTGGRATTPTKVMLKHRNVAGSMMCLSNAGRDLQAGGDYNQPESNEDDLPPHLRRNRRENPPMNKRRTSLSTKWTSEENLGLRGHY

Row | SMILES | AC50
1 | CNC(=O)c1sc(N2N=C3/C(=C/c4ccccc4)CCCC3C2c2ccccc2)nc1C (stereo not given) | 7.59 µM
2 | Cc1ccc(S(=O)(=O)c2cc3c(=O)n4ccccc4nc3n(C3CCCCC3)c2=N)cc1 | > 10 µM (inactive)
3 | COc1ccc(-n2c(O)c(/C=N/NS(=O)(=O)c3cc(C)ccc3C)c3ccccc3c2=O)cc1OC | 1.32 µM
4 | CCCC1=NN2C(=N)/C(=C\c3ccc(SCc4ccco4)o3)C(=O)N=C2S1 | 0.98 µM
5 | O=[N+]([O-])c1ccccc1NC(=S)N/N=C/c1ccc(O)c(O)c1 | 10.4 µM
6 | CCN(CC)Cc1c(O)ccc2c1O/C(=C\C=C\c1ccccc1)C2=O | 4.38 µM
7 | C=CCn1c(=O)[nH]c2nc3cc(N=CN(C)C)c(C)cc3nc2c1=O | 5.73 µM
8 | COc1ccccc1/C=C/C=C1\Oc2c(ccc(O)c2CN(C)C)C1=O | 2.28 µM

same assay, conditions: purified MEX-5-MBP, FITC-TCR2 RNA fluorescence polarization; at 10 µM (top of the series)

Row | SMILES | activity change, negative = inhibition
9 | CC(C)=CCc1c(O)cc(O)c2c(=O)c(O[C@@H]3O[C@@H](C)[C@H](O)[C@@H](O)[C@H]3O)c(-c3ccc(O)cc3)oc12 | inactive
10 | COc1ccc(NCc2n[nH]c(=O)c3ccccc23)cc1 | inactive
11 | CCCC(=O)Nc1ccc(NC(=O)c2cccs2)cn1 | inactive
12 | COc1cc(OC)c2ccc(=O)oc2c1C(CC(=O)N1CCCC1)c1ccc(N(C)C)cc1 (stereo not given) | inactive
13 | COc1cc2c(cc1OC)-c1c(OC)c(OC)cc3c1C(C2)N(C)CC3 (stereo not given) | inactive
14 | CCCCn1c(N)c(N(CCOC)C(=O)c2ccc(Br)o2)c(=O)[nH]c1=O | inactive
15 | COc1ccc(-c2csc(Nc3ccc(S(N)(=O)=O)cc3)n2)cc1OC | inactive
16 | COc1ccc(NC(=O)c2coc(C)c2)cc1 | inactive
17 | NC(=O)C(=O)N/N=C/c1c2ccccc2cc2ccccc12 | inactive
18 | O=C(NNc1ccccc1)C(=O)NNS(=O)(=O)c1ccc(CCCl)cc1 | inactive
19 | O=[N+]([O-])c1cc(S(=O)(=O)c2ccc(O)c([N+](=O)[O-])c2)ccc1O | inactive
20 | O=C(O)CC1S/C(=N/N=C/c2ccc(-c3ccccc3[N+](=O)[O-])o2)NC1=O (stereo not given) | inactive
21 | COC(=O)c1ccccc1-c1ccc(C(c2c(C)[nH][nH]c2=O)c2c(C)[nH][nH]c2=O)o1 | inactive
22 | O=C(O)c1cccc(NC2=C(Cl)C(=O)c3ccccc3C2=O)c1 | inactive
23 | CC(=O)Nc1ccc(/C=N\NC(=O)CNS(=O)(=O)c2ccc([N+](=O)[O-])cc2)cc1 | inactive
24 | Nc1c(C(=O)Nc2cccc(Cl)c2Cl)sc2nc(-c3cccnc3)ccc12 | inactive
25 | FC(F)(F)c1nc2cc3nc4ccccc4[nH]c3cc2n1 | inactive
26 | CCCn1c(=N)c(C(=O)NC2CCCC2)cc2c(=O)n3cccc(C)c3nc21 | inactive
27 | O=C1NC(=O)/C(=C/c2ccc(N3CCOCC3)o2)N1 | inactive

Row | SMILES | activity change, negative = inhibition
28 | O=[N+]([O-])c1ccc(-c2cn3nc(-c4ccccc4)c(-c4ccccc4)nc3n2)cc1 | inactive
29 | O=C(N/N=C/c1cccnc1)c1ccc(O)cc1 | inactive
30 | Cc1cccc(C(=O)NNC(=O)c2ccco2)c1O | inactive
31 | CC(=O)CSc1ncnc2nc[nH]c12 | inactive
32 | O=C1N=C(N2C=CC(=C3C=CNC=C3)C=C2)/C(=C/N=NC(=O)c2ccccc2)S1 | inactive
33 | O=C(O)COc1ccc(Br)cc1C(c1c(C(=O)O)[nH]c2ccccc12)c1c(C(=O)O)[nH]c2ccccc12 | inactive
34 | Oc1c(C=Nc2ccccc2)sc(=S)n1Cc1ccccc1 | inactive
35 | COc1ccc(-c2cn[nH]c2-c2ccc(OCC(=O)NN)cc2O)cc1 | inactive
36 | Cc1cc(C)c[n+](-c2[nH]c(=O)sc2/C=N/N=C(\N)[S-])c1 | inactive
37 | Cn1ncc2c(NNC(=O)c3ccccc3Cl)ncnc21 | inactive
38 | CCc1cc(-c2n[nH]c(C)c2-c2nc3ccccc3s2)c(O)cc1OCC(=O)NN | inactive
39 | Cc1c(C#N)c(O)[nH]c(=O)c1N=Nc1ccc(S(N)(=O)=O)cc1 | inactive
40 | O=C(O)c1cc(Oc2ccc(C(F)(F)F)cc2Cl)ccc1[N+](=O)[O-] | inactive
41 | Nc1c(NCc2ccccc2)c(=O)[nH]c(=O)n1Cc1ccccc1 | inactive
42 | COc1cccc(/C=N/NC(=O)N/N=C/c2cccc(OC)c2O)c1O | inactive
43 | Cn1c(CNC(=O)c2ccc(F)cc2)cc2ccccc21 | inactive
44 | O=C(O)CCC(=O)NNc1ncnc2ccccc12 | inactive
45 | CCn1c(O)c(N=NC(=O)CNC(=O)/C=C/c2ccco2)c2ccccc21 | inactive
